Assay results taken from US20260325655A1, “DECREASING THE INTRINSICALLY DISORDERED PROTEIN ALPHA-SYNUCLEIN’S LEVELS BY TARGETING ITS STRUCTURED MRNA WITH A RIBONUCLEASE TARGETING CHIMERA” (University of Florida Research Foundation, Incorporated, priority 2023, published 2026).

Legend:
[1] = test system: control luciferase reporter lacking an IRE; test: control luciferase reporter lacking an IRE; assay type: cell-based, human; conditions: reporter lacks IRE / SNCA-UTR sequence
Source text: (§1) Plasmid constructs and establishment of reporter gene overexpressing cells. Construction of pIRES-Luc-EGFP-puro plasmid and pCDH-α-syn-5′-UTR-Luc-EGFP-puro plasmid used in 5′ UTR-luciferase-based selectivity assay were previously described.^4 Briefly, In-Fusion PCR cloning system (Takara Bio, Mountain View, CA, USA) was used for all plasmid constructions per the manufacturer's instructions. To ensure sequence accuracy, all plasmids generated in this study were confirmed by sequencing.
(§2) Luciferase assay. The effect of compounds on translation of SNCA IRE-containing transcript was measured by using a luciferase reporter assay. HeLa cells (~60% confluency) were transfected with plasmids (2 μg per 60 mm dish) by using JetPrime (Polyplus Transfection) according to the manufacturer's recommended procedures. Approximately 16 h after transfection, the transfection cocktail was removed, and the cells were trypsinized and seeded to 96-well plates (8,000 cells per well). After 6 h, cells were treated as described in Cell Culture. To measure the luciferase signals, the cells were then washed with 1× DPBS, and luciferase activity in each well was measured by using the ONE-Glo Luciferase Assay System (Promega) per the manufacturer's instructions. Luminescence from firefly luciferase reaction was measured using a Biomek FLx800 plate reader.

[2] = test system: SNCA-UTR-Luciferase; test: SNCA-UTR luciferase reporter assay; assay type: cell-based, human; conditions: highest concentration tested
Source text: as §1, §2

[3] = test system: RNase L; conditions: regioisomer recruiter module of Syn-CTRL vs active recruiter (ref 48); cited from earlier work
[4] = biological target: SNCA IRE; test: MST binding affinity for SNCA IRE (A bulge model RNA); conditions: microscale thermophoresis; Cy5-labeled RNA
Protocol: (§3) Binding Affinity Measurements: Microscale Thermophoresis (MST). Binding affinity measurements were performed on a Monolith NT.115 MST system (NanoTemper Technologies) with Cy5-labeled oligonucleotides. Briefly, Cy5-labeled RNA (5 nM) was prepared in 1× Folding Buffer and folded by heating at 60° C. for 5 min and then slowly cooling to room temperature. After cooling, Tween-20 was added to a final concentration of 0.1% (v/v). Compound solutions were prepared separately in 30 μL of 1× Assay Buffer at a final concentration of 5 μM (1% (v/v) DMSO), followed by 1:1 serial dilutions in 1× Assay Buffer. RNA and compound solutions were then mixed 1:1 by volume.
(§4) Samples were incubated for 20 min at room temperature and then loaded into premium capillaries (NanoTemper Technologies, Cat #MO-K025). The following parameters were used for MST measurement: 5-20% LED power (adjusted to keep fluorescence intensity between 8000 and 18000), 80% MST power, Laser-On time=30 s, and Laser-Off time=5 s. The resulting data were analyzed by calculating the change in thermophoresis as a function of compound concentration and fitted by Equation (3) in MST analysis software (NanoTemper Technologies) to yield the dissociation constant (Kd):
(§5) where F is the concentration of fluorescently labeled RNA; unbound and bound refer to the thermophoresis signal at completely unbound and bound state of RNA, respectively; c is the concentration of the compound; f (c) is the thermophoresis signal at compound concentration of c; Kd is the dissociation constant.

[5] = test system: fully base paired RNA; test: MST binding to fully base paired control RNA; conditions: microscale thermophoresis
Protocol: as §3, §4, §5

[6] = test system: SNCA IRE-luciferase transcript; test: SNCA IRE-luciferase transcript abundance by RT-qPCR; assay type: cell-based, human
Protocol: RNA extraction and reverse transcription-quantitative polymerase chain reaction (RT-qPCR). Total RNA was extracted from cells using a Quick-RNA MiniPrep Kit (Zymo Research) per the manufacturer's protocol including DNase treatment. For each sample, 200 ng of RNA was reverse transcribed into cDNA by using a qScript cDNA Synthesis Kit (QuantaBio) according to the manufacturer's instructions. To assess the relative mRNA levels, RT-qPCR was performed in triplicate using SYBR Green PCR mater mix (Applied Biosystems) with a Quant Studio 5 Real-Time PCR system. The relative levels of mRNA were calculated by using the ΔΔCt method as previously described.^8
as §1

- inhibition in the control luciferase reporter [1]: Neither compound showed inhibition
- decrease of luminescence signal (in words) [2]: modest decrease
- Kd [4]: 97 ± 3 nM
- binding towards the fully base paired RNA [5]: no saturable binding
SMILES: CCOC(=O)C1=C(Nc2ccccc2)S/C(=C\c2ccc(O)c(OCCOCCOCCOCCNC(=O)CCCOc3ccc(-n4c(SCC(=O)Nc5ccc6cn[nH]c6c5)nnc4-c4ccncc4)cc3)c2)C1=O [Syn-CTRL]
- loss of activity of the RNase L-recruiting module in inducing RNase L cleavage [3]: ~ 20 -fold less active
- effect on SNCA IRE-luciferase transcript levels (in words) [6]: no effect
